Test system: MI / coronary events in Scottish men with hypercholesterolemia
Assay: WOSCOPS nested case-control study: MI/CHD in pravastatin- vs placebo-treated patients stratified by SNP genotype
Format: in vivo, human
Details: for OR, CHD case vs control, Matched: placebo = ref 1.00, cases and controls matched for age and smoking; for OR, CHD case vs control, Adjusted: placebo = ref 1.00, matched and adjusted for hypertension, diabetes, BMI, LDL-C, HDL-C; for Risk Reduction by Statin (Pravastatin vs. Placebo) OR: odds ratio of MI, pravastatin- vs placebo-treated, heterozygous carriers of hCV3054799 only
Text: In order to identify genetic markers associated with acute coronary events (e.g. MI, stroke, unstable angina, congestive heart failure, etc.) or response to statin treatment for the prevention of coronary events, samples were genotyped in two clinical trials: the Cholesterol and Recurrent Events (CARE) study (a randomized multicentral double-blinded trial on secondary prevention of acute coronary events with pravastatin; Sacks et al., Am. J. Cardiol. 68: 1436-1446[1991]), and the West of Scotland Coronary Prevention Study (WOSCOPS) study (Shepherd et al., N Eng J Med 333 (20), pp. 1301-7, Nov. 16, 1995; Packard et al., N Eng J Med 343 (16), pp. 1148-55, Oct. 19, 2000).
Genetic markers identified as associated with acute coronary events or response to statin treatment for the prevention of coronary events in the CARE samples were also genotyped in a second sample set, the West of Scotland Coronary Prevention Study (WOSCOPS). The design of the original WOSCOPS cohort and the nested case-control study have been described (Shepherd et al., N Eng J Med 333 (20), pp. 1301-7, Nov. 16, 1995; Packard et al., N Eng J Med 343 (16), pp. 1148-55, Oct. 19, 2000). The objective of the WOSCOPS trial was to assess pravastatin efficacy at reducing risk of primary MI or coronary death among Scottish men with hypercholesterolemia (fasting LDL cholesterol>155 mg/dl). Participants in the WOSCOPS study were 45-64 years of age and followed for an average of 4.9 years for coronary events. The nested case-control study included as cases all WOSCOPS patients who experienced a coronary event (confirmed nonfatal MI, death from coronary heart disease, or a revascularization procedure; N=580). Controls were age- and smoking-matched unaffected patients. All individuals included in the study had signed informed consent forms and the study protocol was approved by the IRBs. DNA was extracted and genotyped as described above.
The association of hCV3054799 with risk of MI in patients was tested in two clinical trials, CARE and WOSCOPS, with patients receiving treatment with either pravastatin or placebo. CARE was a secondary prevention trial (i.e., recurrent MI as endpoint) and WOSCOPS was a primary prevention trial. […] The analysis in WOSCOPS (a nested case-control study) was performed using the MI as an endpoint.
In both the CARE and WOSCOPS studies, an association analysis was performed for each of the two modes of inheritance, dominant and recessive. Additionally, a genotypic test (heterozygote v. major homozygote) and an allelic test of association were performed using Fisher's exact method. Estimates of odds ratios and corresponding ninety-five percent confidence intervals were calculated. The significance of the disease association for hCV3054799 with the overall (unstratified) population, and with the placebo- or pravastatin-treated patients are indicated in Table 8. […] In patients that are heterozygous carriers of the minor allele, the odds ratio for risk of MI relative to patients with no minor allele is 1.7, with a P value below 0.01 both studies. The odds ratio is approximately the same (1.6-1.7) when calculated for the dominant mode of inheritance (a genotype with one or two minor alleles vs. none), with a P value less than or equal to 0.01 in both studies.
Also analyzed was whether hCV3054799 is associated with response to statin treatment (specifically, a decreased risk of MI as a result of treatment with pravastatin). […] Heterozygous carriers in the placebo treatment group were used as a reference in determining the odds ratios. […] For comparison, the odds ratio for association of this SNP with MI risk in placebo-treated carriers is also presented, under the heading “MI/RMI risk estimation” (data from Table 8; again, heterozygous carriers).
In analyzing the CARE patients, statistical analysis was performed with SAS version 9. […]

## CC[C@H](C)C(=O)O[C@H]1C[C@H](O)C=C2C=C[C@H](C)[C@H](CC[C@@H](O)C[C@@H](O)CC(=O)O)[C@H]21 [pravastatin]
KIF6 hCV3054799 AA
  OR, CHD case vs control, Matched: 0.94
  OR, CHD case vs control, Adjusted: 0.91
KIF6 hCV3054799 GG + GA
  OR, CHD case vs control, Matched: 0.50
  OR, CHD case vs control, Adjusted: 0.50
  Risk Reduction by Statin (Pravastatin vs. Placebo) OR: approximately 0.5
Listed as Pravastatin
  Risk Reduction by Statin (Pravastatin vs. Placebo) OR: 0.45

— patent US7799530B2, “Genetic polymorphisms associated with cardiovascular disorders and drug response, methods of detection and uses thereof” (Celera Corporation, priority 2005, dated 2010)
